From US6133275A, “3-phenylpyrrolidine alpha-1 adrenergic compounds” (Abbott Laboratories, priority 1998, dated 2000)
Structures can show the parent of a compound that is named as a salt.

Legend:
α1d (rat) = target: T1, α1d (rat) (Rattus norvegicus, UniProt P23944); experiment: Radioligand binding, displacement of [3H]-prazosin from cloned α1d (rat) expressed in LTK cells; conditions: [3H]-prazosin 0.2 nM; cloned rat α1d in LTK cell membranes; 25° C., 50 minutes
T1 sequence (P23944 1-561): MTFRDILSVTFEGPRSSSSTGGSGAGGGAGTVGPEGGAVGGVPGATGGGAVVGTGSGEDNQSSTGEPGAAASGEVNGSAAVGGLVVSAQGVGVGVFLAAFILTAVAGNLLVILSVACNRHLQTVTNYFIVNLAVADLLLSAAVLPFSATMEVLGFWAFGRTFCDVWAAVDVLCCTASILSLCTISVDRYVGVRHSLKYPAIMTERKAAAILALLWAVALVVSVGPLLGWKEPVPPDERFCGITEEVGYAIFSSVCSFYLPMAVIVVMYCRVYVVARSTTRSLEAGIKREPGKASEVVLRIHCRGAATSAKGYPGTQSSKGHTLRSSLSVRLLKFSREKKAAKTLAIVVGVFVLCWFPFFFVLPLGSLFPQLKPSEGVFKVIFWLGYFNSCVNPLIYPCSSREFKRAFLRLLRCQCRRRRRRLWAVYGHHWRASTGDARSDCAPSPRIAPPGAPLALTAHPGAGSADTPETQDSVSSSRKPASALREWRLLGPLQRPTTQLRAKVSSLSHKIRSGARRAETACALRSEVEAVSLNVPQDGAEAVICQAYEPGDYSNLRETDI

α1b (Hamster) = target: T2, α1b (Hamster) (Mesocricetus auratus, UniProt P18841); experiment: Radioligand binding, displacement of [3H]-prazosin from cloned α1b (hamster) expressed in LTK cells; conditions: [3H]-prazosin 0.2 nM; cloned hamster α1b in LTK cell membranes; 25° C., 50 minutes
T2 sequence (P18841 1-515): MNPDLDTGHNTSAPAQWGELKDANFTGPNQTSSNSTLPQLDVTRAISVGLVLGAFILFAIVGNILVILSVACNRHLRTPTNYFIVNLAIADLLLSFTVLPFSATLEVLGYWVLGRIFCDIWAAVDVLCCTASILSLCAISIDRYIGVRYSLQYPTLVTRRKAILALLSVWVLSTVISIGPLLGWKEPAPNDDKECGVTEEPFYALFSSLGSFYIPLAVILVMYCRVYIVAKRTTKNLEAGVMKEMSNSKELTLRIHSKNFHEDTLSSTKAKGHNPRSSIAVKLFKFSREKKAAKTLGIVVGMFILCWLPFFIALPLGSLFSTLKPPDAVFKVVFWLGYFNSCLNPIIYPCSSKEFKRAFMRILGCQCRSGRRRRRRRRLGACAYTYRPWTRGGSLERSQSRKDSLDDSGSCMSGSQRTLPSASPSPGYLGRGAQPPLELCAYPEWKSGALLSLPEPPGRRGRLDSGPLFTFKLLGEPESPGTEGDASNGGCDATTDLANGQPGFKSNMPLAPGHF

α1a (Rat) = target: T3, α1a (Rat) (Rattus norvegicus, UniProt P43140); experiment: Radioligand binding, displacement of [3H]-prazosin from cloned α1a (rat) expressed in LTK cells; conditions: [3H]-prazosin 0.2 nM; cloned rat α1a in LTK cell membranes; 25° C., 50 minutes
T3 sequence (P43140 1-466): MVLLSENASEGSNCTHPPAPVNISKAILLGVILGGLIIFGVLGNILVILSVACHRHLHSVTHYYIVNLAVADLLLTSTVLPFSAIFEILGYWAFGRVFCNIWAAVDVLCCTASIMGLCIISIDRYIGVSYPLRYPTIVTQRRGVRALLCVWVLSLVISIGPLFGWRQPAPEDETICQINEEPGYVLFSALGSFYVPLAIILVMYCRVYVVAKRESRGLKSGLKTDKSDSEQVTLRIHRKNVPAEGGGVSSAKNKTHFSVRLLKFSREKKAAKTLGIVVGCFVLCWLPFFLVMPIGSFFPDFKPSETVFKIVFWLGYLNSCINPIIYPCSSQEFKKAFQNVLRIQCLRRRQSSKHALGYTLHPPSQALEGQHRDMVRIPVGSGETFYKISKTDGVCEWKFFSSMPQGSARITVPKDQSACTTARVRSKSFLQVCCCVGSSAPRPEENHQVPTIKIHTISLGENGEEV

α1a (Bovine) = target: T4, α1a (Bovine) (Bos taurus, UniProt P18130); experiment: Radioligand binding, displacement of [3H]-prazosin from cloned α1a (bovine) expressed in LTK cells; conditions: [3H]-prazosin 0.2 nM; cloned bovine α1a in LTK cell membranes; 25° C., 50 minutes
T4 sequence (P18130 1-466): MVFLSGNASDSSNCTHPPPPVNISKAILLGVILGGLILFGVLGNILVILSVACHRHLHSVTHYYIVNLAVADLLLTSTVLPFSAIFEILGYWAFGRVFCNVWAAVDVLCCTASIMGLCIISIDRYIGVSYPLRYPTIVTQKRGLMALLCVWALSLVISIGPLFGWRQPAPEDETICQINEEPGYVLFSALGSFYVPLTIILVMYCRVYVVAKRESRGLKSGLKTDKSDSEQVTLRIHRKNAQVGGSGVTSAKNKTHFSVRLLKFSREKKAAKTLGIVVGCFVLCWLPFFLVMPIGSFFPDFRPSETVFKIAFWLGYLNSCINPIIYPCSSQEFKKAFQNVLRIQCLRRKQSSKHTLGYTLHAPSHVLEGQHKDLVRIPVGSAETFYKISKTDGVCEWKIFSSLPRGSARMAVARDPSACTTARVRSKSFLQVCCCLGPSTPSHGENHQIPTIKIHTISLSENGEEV

BPH patients = conditions: cited from earlier work; for Clinical efficacy in BPH: BPH patients; for improvements in urinary flow rates and subjective symptom scores: longer term studies

Row | Structure (SMILES) | Ki (α1d (rat)) | Ki (α1b (Hamster)) | Ki (α1a (Rat)) | Ki (α1a (Bovine)) | Clinical efficacy in BPH (BPH patients) | improvements in urinary flow rates and subjective symptom scores (BPH patients)
1 | COc1cccc([C@H]2CCN(CCn3c(=O)[nH]c4c(sc5cccnc54)c3=O)C2)c1 [Example 20, (R)-3-[2-[3-(3-methoxyphenyl)-1-pyrrolidinyl]ethyl]pyrido[2',3':4,5]thieno[3,2-d]pyrimidine-2,4(1H,3H)-dione, Dihydrochloride] | 69.4 nM | 194 nM | 46.3 nM | 12 nM | – | –
2 | COc1cccc([C@H]2CCN(CCCn3c(=O)[nH]c4c(sc5cccnc54)c3=O)C2)c1 [Example 21, (R)-3-[3-[3-(3-methoxyphenyl)-1-pyrrolidinyl]propyl]pyrido[2',3':4,5]thieno[3,2-d]pyrimidine-2,4(1H,3 H)-dione, Dihydrochloride] | 92.2 nM | 70.7 nM | 27.3 nM | 8 nM | – | –
3 | COc1cccc([C@H]2CCN(CCn3c(=O)[nH]c4c(sc5ncccc54)c3=O)C2)c1 [Example 23, (R)-3-[2-[3-(3-methoxyphenyl)-1-pyrrolidinyl]ethyl]pyrido[3',2':4,5]thieno[3,2-d]pyrimidine-2,4(1H,3H)-dione, Dihydrochloride] | 86.4 nM | 331 nM | 134 nM | 27 nM | – | –
4 | COc1ccccc1[C@@H]1CCN(CCCn2c(=O)[nH]c3c(sc4cccnc43)c2=O)C1 [Example 28, (S)-3-[3-[3-(2-methoxyphenyl)-1-pyrrolidinyl]propyl]pyrido[2',3':4,5]thieno[3,2-d]pyrimidine-2,4(1H,3H)-dione, Dihydrochloride] | 27.8 nM | 88.6 nM | 25.8 nM | 10.3 nM | – | –
5 | COc1cc2nc(N3CCN(C(=O)C4COc5ccccc5O4)CC3)nc(N)c2cc1OC (stereo not drawn) [doxazosin] | – | – | – | – | Clinical efficacy of α1 antagonists in BPH has been demonstrated | significant improvements in urinary flow rates and subjective symptom scores
6 | O=C(NC1CCN(CCc2c[nH]c3ccccc23)CC1)c1ccccc1 [indoramin] | – | – | – | – | – | significant improvements in urinary flow rates and subjective symptom scores
7 | COc1cc2nc(N3CCN(C(=O)c4ccco4)CC3)nc(N)c2cc1OC [prazosin] | – | – | – | – | – | significant improvements in urinary flow rates and subjective symptom scores
8 | COc1cc2nc(N3CCN(C(=O)C4CCCO4)CC3)nc(N)c2cc1OC (stereo not drawn) [terazosin] | – | – | – | – | Clinical efficacy of α1 antagonists in BPH has been demonstrated | significant improvements in urinary flow rates and subjective symptom scores

Further compounds by falling Ki (α1d (rat)), results first:

Row | Ki (α1d (rat)) | Ki (α1b (Hamster)) | Ki (α1a (Rat)) | Ki (α1a (Bovine)) | Structure (SMILES) | Clinical efficacy in BPH (BPH patients) | improvements in urinary flow rates and subjective symptom scores (BPH patients)
9 | 11.5 nM | 18.4 nM | 5.11 nM | 1.52 nM | COc1cccc([C@H]2CCN(CCCCn3c(=O)[nH]c4c(sc5cccnc54)c3=O)C2)c1 [Example 22, (R)-3-[4-[3-(3-methoxyphenyl)-1-pyrrolidinyl]butyl]pyrido[2',3':4,5]thieno[3,2-d]pyrimidine-2,4(1H,3H)-dione, Dihydrochloride] | – | –
10 | 8.48 nM | 15.7 nM | 14.4 nM | 2.46 nM | COc1ccccc1[C@@H]1CCN(CCn2c(=O)[nH]c3c(sc4cccnc43)c2=O)C1 [Example 27, (S)-3-[2-[3-(2-methoxyphenyl)-1-pyrrolidinyl]ethyl]pyrido[2',3':4,5]thieno[3,2-d]pyrimidine-2,4(1H,3 H)-dione, Dihydrochloride] | – | –
11 | 5.19 nM | 20 nM | 7.37 nM | 2.81 nM | COc1cccc([C@H]2CCN(CCCCn3c(=O)[nH]c4c(sc5ncccc54)c3=O)C2)c1 [Example 24, (R)-3-[4-[3-(3-methoxyphenyl)-1-pyrrolidinyl]butyl]pyrido[3',2':4,5]thieno[3,2-d]pyrimidine-2,4(1H,3H)-dione, Dihydrochloride] | – | –
12 | 3.86 nM | 5.61 nM | 9.33 nM | 1.67 nM | COc1ccccc1[C@@H]1CCN(CCn2c(=O)[nH]c3c(sc4ccccc43)c2=O)C1 [Example 25, (S)-3-[2-[3-(2-methoxyphenyl)-1-pyrrolidinyl]ethyl]-[1]benzothieno[3,2-d]pyrimidine-2,4(1H,3H)-dione Monohydrochloride] | – | –
13 | 3.04 nM | 10.7 nM | 6.79 nM | 1.24 nM | COc1cccc([C@@H]2CCN(CCn3c(=O)[nH]c4c(sc5ccccc54)c3=O)C2)c1 [Example 26, (S)-3-[2-[3-(3-methoxyphenyl)-1-pyrrolidinyl]ethyl]-[1]benzothieno[3,2-d]pyrimidine-2,4(1H,3H)-dione, Monohydrochloride] | – | –
14 | 2.02 nM | 4.02 nM | 1.98 nM | 0.69 nM | COc1ccccc1[C@@H]1CCN(CCCCn2c(=O)[nH]c3c(sc4cccnc43)c2=O)C1 [Example 29, (S)-3-[4-[3-(2-methoxyphenyl)-1-pyrrolidinyl]butyl]pyrido[2',3':4,5]thieno[3,2-d]pyrimidine-2,4(1H,3H)-dione, Dihydrochloride] | – | –
15 | 0.66 nM | 1.02 nM | 0.46 nM | 0.21 nM | COc1ccccc1[C@H]1CCN(CCCCN2C(=O)COc3ccccc32)C1 [Example 18, (R)-4-[4-[3-(2-methoxyphenyl)-1-pyrrolidinyl]butyl]-2H-1,4-benzoxazin-3(4H)-one, Monohydrochloride] | – | –
16 | 0.23 nM | 0.93 nM | 0.57 nM | 0.15 nM | COc1ccccc1[C@H]1CCN(CCCCN2C(=O)CCc3ccccc32)C1 [Example 19, (R)-3,4-dihydro-1-[4-[3-(2-methoxyphenyl)-1-pyrrolidinyl]butyl]-2(1H)-quinolinone Monohydrochloride] | – | –
